Reference: US4877807A, “5-phenyl-1,2,3a,4,5,9b-hexahydro-3H-benz(e)indotes preparation and use thereof as drugs” (BASF Aktiengesellschaft, priority 1987, dated 1989)
Structures can show the parent of a compound that is named as a salt.

Assays:
[1] = tested on: tonic spasms induced by electroshock in female mice (NMRI strain); experiment: Inhibition of electroshock-induced tonic spasms in mice (anticonvulsive action); type: in vivo; settings: oral; for ED50: Mus musculus, 1 h, 60 minutes before electroshock, dose inhibiting tonic spasms in 50% of the animals, n/dose=8, read-out: Anticonvulsive action ED 50
Description: The anticonvulsive action was measured on female mice (NMRI strain) having a weight of 22-26 g. Tonic spasms were induced by electroshock via ear electrodes. Stimulus data: a series of square-wave pulses 4.64 ms in duration and 14.7 mA in amplitude; frequency 100 Hz; duration of series 0.2 sec.
The electroshock was administered 60 minutes after the oral administration of the test compounds, and the appearance of tonic spasms was counted. n/dose=8. The ratios between the effectiveness (% protected animals) and log dose were calculated by probit analysis. ED 50 is the dose which inhibits the tonic spsms in 50% of the animals.

[2] = tested on: reserpine-inducd hypothermia in male mice (NMRI strain); experiment: Inhibition of reserpine-induced hypothermia in mice (antidepressive action); type: in vivo; settings: oral; for effectiveness higher than that of imipramine, factor: ED 50 relative to imipramine; for ED50: Mus musculus, 60 minutes before reserpine 2.15 mg/kg s.c., dose inhibiting reserpine-induced hypothermia by 50%, read-out: Antidepressive action ED 50
Description: The antidepressive activity of the substances according to the invention was studied using the following model:
Antidepressant substances inhibit this hypothermic effect, the degree of inhibition depending on the dose. The test substances were administered orally 60 minutes before the reserpine was administered.
The dose which inhibits reserpine-inducd hypothermia by 50%, ie. ED 50, is determined from the linear regression between log dose (mg/kg) and the relative decrease in the hypothermic effect.

Structure (SMILES) | ED50 [1] | anticonvulsive effectiveness compared with phenytoin (in words) [1] | effectiveness higher than that of imipramine, factor [2] | ED50 [2]
CN1CC[C@@H]2c3ccccc3[C@H](c3ccccc3)C[C@@H]21 (relative stereo) [Example 1, (±)-3aS(R),5S(R),9bR(S)-3-Methyl-5-phenyl-1,2,3a,4,5,9b-hexahydro-3H -benz[e]indole hydrochloride] | 1.1 mg/kg | equalled or substantially exceeded | about 45 | 0.082 mg/kg
CN1CC[C@H]2c3ccccc3[C@H](c3ccccc3)C[C@@H]21 (relative stereo) [Example 2, (±)-3aR(S),5R(S),9bR(S)-3-Methyl-5-phenyl-1,2,3a,4,5,9b-hexahydro-3H-benz[e]indole] | – | – | – | 5.01 mg/kg
CCN1CC[C@@H]2c3ccccc3[C@H](c3ccccc3)C[C@@H]21 (relative stereo) [Example 5, (±)-3aS(R),5S(R),9bR(S)-3-ethyl-5-phenyl-1,2,3a,4,5,9b-hexahydro-3H-benz[e]indole hydrochloride] | ~100 mg/kg | – | – | 0.14 mg/kg
CCN1CC[C@H]2c3ccccc3[C@H](c3ccccc3)C[C@@H]21 (relative stereo) [Example 6, (±)-3aR(S),5R(S),9bR(S)-3-Ethyl-5-phenyl-1,2,3a,4,5,9b-hexahydro-3H-benz[e]indole hydrochloride] | 8.81 mg/kg | equalled or substantially exceeded | – | 1.61 mg/kg
CCCN1CC[C@@H]2c3ccccc3[C@H](c3ccccc3)C[C@@H]21 (relative stereo) [Example 7, (±)-3aS(R),5S(R),9bR(S)-3-n-propyl-5-phenyl-1,2,3a,4,5,9b-hexahydro-3H-benz[e]indole hydrochloride] | 11.9 mg/kg | – | – | 0.26 mg/kg
CN1CC[C@@H]2c3ccccc3[C@H](c3ccccc3)C[C@@H]21 [Example 4, (+)-3aS,5S,9bR-3-Methyl-5-phenyl-1,2,3a,4,5,9b-hexahydro-3H-benzo[e]indole] | ~46.4 mg/kg | – | about 45 | 0.087 mg/kg
CN(C)CCCN1c2ccccc2CCc2ccccc21 [imipramine, reference compound] | – | – | – | 3.82 mg/kg
O=C1NC(=O)C(c2ccccc2)(c2ccccc2)N1 [phenytoin, reference compound] | 14.3 mg/kg | – | – | –
